Data set [1] relates to mice. Description: Mouse hot plate analgesia experiment (antagonism of morphine analgesia, blood-brain barrier study). The conditions noted are these: for Average Pain Threshold after Administration (s) Mean ± SD: 60 minutes after administration. On the procedure: Six conjugates Na1021, Na1029, Na1045, Na1037, Na1041, and Na1049 were subjected to mouse hot plate analgesia experiments for four times, respectively. In each experiment, mice (JOINN Laboratories (Suzhou)) were randomly divided into four groups (eight per group): one blank control group, one morphine control group, and two other groups which were administered with morphine by gavage first, and then low dose and high dose of the conjugates were subcutaneously injected respectively. The mice were put on a hot plate (55±0.1) ° C. before administration, and the time was recorded immediately. The duration from the beginning on the hot plate to the first hind paw licking was recorded as the reaction time of heat-pain sensation (i.e., pain threshold, the unit is second (s)). The pain threshold was set as 100% analgesia if there was no hind paw licking in 60 seconds. It was recorded as 60 seconds when the time exceeded 60 seconds to prevent burn of foot. The mice were again put on a (55±0.1) ° C. hot plate 60 minutes after the administration of drug and the reaction time of heat-pain sensation was recorded. […] The value of the pain thresholds before and after administration was compared and the percentage of increase in pain threshold was calculated according to the following formula to determine the effect of drug on antagonizing morphine analgesia. Percentage of increase in pain threshold=[(average heat pain threshold after administration−average pain threshold before administration)/average pain threshold before administration]×100%

Data set [2] addresses T1, OPRM1 (Mμ opioid receptor gene) receptor (Homo sapiens, UniProt P35372). Description: cell-based.
Experimental: (§1) Cell suspension was inoculated into a 384-well microplate at a density of 15,000 cells per well, and cultured in a 37° C./5% CO2 incubator for at least 18 hours before experiment.
(§2) Before the test, the conjugates to be tested was diluted with HBSS buffer (containing 20 mM HEPES) and prepared as 5× solution with a concentration five times of the test solution. […] The concentration of the corresponding control DMSO is 0.1%.
(§3) The protocol for preparing agonist detection: cells were inoculated into 384-well microplates, 20 μl of cell suspension per well (containing 15,000 cells); the plate was placed in 37° C./5% CO2 incubator to continue the culture; cells were taken out after 18 hours, and dye was added, 20 μl per well; the plate was incubated in 37° C./5% CO2 incubator for 1 hour and equilibrated at room temperature for 15 minutes; and 10 μl of 5× test solution of agonist was added to each well for RFU value detection.
(§4) The protocol for preparing inhibitor detection: cells were inoculated into 384-well microplates, 20 μl of cell suspension per well (containing 15,000 cells); the plate was placed in 37° C./5% CO2 incubator to continue the culture; cells were taken out after 18 hours; for the inhibitor detection, 20 μl of dye was added to the plate, and then 10 μl of prepared conjugate solution was added; the plate was incubated in 37° C./5% CO2 for 1 hour and equilibrate at room temperature for 15 minutes; 12.5 μl of 5× EC80 positive agonist was added for RFU value detection.
(§5) The 384-well microplate containing the conjugate solution (5× test concentration), cell plate and pipette tip box were placed in FLIPR (Molecule Devices), and the agonist detection program was run. The overall detection time of the instrument was 120 seconds. 10 μl of agonist was automatically added to the plate at the 21st second. […] (Molecule Devices), and the inhibitor detection program was run. The overall detection time of the instrument was 120 seconds. 12.5 μl of positive agonist was automatically added to the plate at the 21st second.
Data set [3] concerns mice. The experiment in a line: Anti-constipation study: antagonizing the antidiarrheal effect of loperamide hydrochloride (castor oil diarrhea). Type of data set: in vivo. On the procedure:
The anti-constipation study experiment was completed by using the test of antagonizing the antidiarrheal effect of loperamide hydrochloride. The specific experiment process was: the mice were divided into groups randomly, eight mice each group, wherein one group was administered with 0.5 mL of castor oil by gavage, one group was administered with 2 mg/kg loperamide hydrochloride and 0.5 mL of castor oil by gavage, and conjugate test groups were respectively administered with Na1021 (300 nmol/kg), Na1029 (300 nmol/kg), Na1033 (300 nmol/kg) and Na1045 (600 nmol/kg) by gavage first, and then with 2 mg/kg loperamide and 0.5 mL castor oil by gavage.
The mice were divided into groups randomly, eight mice each group, wherein one group was administered with 0.5 mL of castor oil by gavage, one group was administered with 2 mg/kg loperamide and 0.5 mL castor oil by gavage, other groups were respectively administered with different doses of conjugate Na1029 first, then with 2 mg/kg loperamide hydrochloride and 0.5 mL castor oil by gavage.

The target of data set [4] is T1, OPRM1 (Mμ opioid receptor gene) receptor.
Experimental: as §1, §2, §3, §4, §5

Data on two compounds can be found in patent US11311533B2, “Opioid receptor antagonist conjugate and use thereof” (SHANGHAI HANMAI BIO-PHARMA CO., LTD., priority 2016, dated 2022).

The structures appear in SMILES notation. Read-outs that look alike come from different tables or passages of the source.

T1 sequence (P35372 whole entry): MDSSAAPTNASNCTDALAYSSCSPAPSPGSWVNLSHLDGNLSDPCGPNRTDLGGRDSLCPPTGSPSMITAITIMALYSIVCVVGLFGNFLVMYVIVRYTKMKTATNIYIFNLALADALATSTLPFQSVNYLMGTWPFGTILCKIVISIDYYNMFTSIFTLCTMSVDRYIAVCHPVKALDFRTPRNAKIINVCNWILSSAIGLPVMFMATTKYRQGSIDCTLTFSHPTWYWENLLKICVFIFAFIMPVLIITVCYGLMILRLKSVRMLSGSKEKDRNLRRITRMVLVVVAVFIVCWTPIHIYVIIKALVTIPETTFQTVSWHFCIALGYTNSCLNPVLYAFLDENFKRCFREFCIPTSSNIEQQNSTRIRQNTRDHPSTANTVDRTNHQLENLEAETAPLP

`Oc1ccc2c3c1O[C@H]1[C@@H](OCCOCCOCCOCCOCCOCCOCCOCCO[C@H]4CC[C@@]5(O)[C@H]6Cc7ccc(O)c8c7[C@@]5(CCN6CC5CC5)[C@H]4O8)CC[C@@]4(O)[C@@H](C2)N(CC2CC2)CC[C@]314` [Nal029, PEG8-(6-α-naltrexol)2-ether]: the entries for the “Average Pain Threshold before Administration (s) Mean ± SD” value in the data set with mice [1] (3.66 μmol/kg + Morphine group) and with mice [1] (18.28 μmol/kg + Morphine group) were 20.00 ± 5.71 s and 22.13 ± 7.26 s, respectively. The “Percentage of Increase in Pain Threshold” value with mice [1] (3.66 μmol/kg + morphine) amounted to 200.00%; with mice [1] (18.28 μmol/kg + morphine) it was 155.31%. For the same compound, the “Average Pain Threshold after Administration (s) Mean ± SD” value in the data set with mice [1] (3.66 μmol/kg subcutaneous + Morphine by gavage) was determined as 60.00 ± 0 s; with mice [1] (18.28 μmol/kg subcutaneous + Morphine by gavage) it was 56.5 ± 9.90 s. Also, the “Passage through the blood-brain barrier (concluded from antagonism of the analgesic effect of morphine)” value in the data set with mice [1] (mouse hot plate, conjugate subcutaneous after morphine by gavage) was “cannot pass through the blood-brain barrier”. Besides, the IC50 – broadly, the concentration that gives 50% inhibition – in data set [2] was 0.161 µM. For the same compound, in data set [2] (OPRM1, read-out: Inhibition rate (%) of highest concentration (mean ± standard deviation) (N = 2)), the inhibition at 10 µM came to 98 ± 3.09%. Moreover, the “Antagonism of the antidiarrheal effect of loperamide hydrochloride compared with the model control group” value in the data set on mice [3] (Example 9, dose-dependent) is listed as “significantly antagonize”. Also, the “Total Number of Diarrhea Times Six Hours after Administration” value in the data set on mice [3] (Table 10: 300 nmol/kg by gavage + Loperamide Hydrochloride + Castor Oil) is 20.88 ± 5.82; in the data set on mice [3] (Table 10: 300 nmol/kg by gavage + Loperamide Hydrochloride + Castor Oil, listed as Na1029), “relatively high”; with mice [3] (Table 11: 10 μg/kg + Loperamide Hydrochloride + Castor Oil) it was 5.25 ± 7.42; in the data set with mice [3] (Table 11: 30 μg/kg + Loperamide Hydrochloride + Castor Oil) it was 6.50 ± 5.88; in the data set with mice [3] (Table 11: 100 μg/kg + Loperamide Hydrochloride + Castor Oil) it was 12.13 ± 5.67; in the data set on mice [3] (Table 11: 500 μg/kg + Loperamide Hydrochloride + Castor Oil), 18.25 ± 3.99. Besides, the “EC50 for antagonizing the antidiarrheal effect of loperamide hydrochloride” value in the data set on mice [3] (dose-response in mice, Table 11 and FIG. 1) was ~0.086 mg/kg.
Take `C=CCN1CCC23c4c5ccc(O)c4OC2C(OCCOCCOCCOCCOCCOCCOC)CCC3(O)C1C5` (stereo not drawn) [Nal046, mPEG6-(6-β-naloxol)-ether]: in data set [4] (CHO-K1/Gα15/OPRM1 cells, inhibitor detection against EC80 positive agonist, RFU), the IC50 stood at 3.84 µM. Besides, the “Inhibition rate (%) of highest concentration (mean ± standard deviation) (N = 2)” value in data set [4] (highest concentration 10000 nM) came to 79.55 ± 5.73%.
